Test results as given in patent US20220354860A1, “HETEROCYCLIC DERIVATIVES AND USE THEREOF” (Fochon Pharmaceuticals, Ltd., priority 2019, published 2022).

Experiments:
URAT1 [1] = molecular target: T1, URAT1 (Homo sapiens, UniProt Q96S37); assay: URAT1 inhibitor activity, 14C-uric acid uptake in HEK293-URAT1 cells; type: cell-based; details: URAT1 inhibition, 14C-Uric acid 5.0 μmol/L, 2 min
T1 sequence (Q96S37 1-553): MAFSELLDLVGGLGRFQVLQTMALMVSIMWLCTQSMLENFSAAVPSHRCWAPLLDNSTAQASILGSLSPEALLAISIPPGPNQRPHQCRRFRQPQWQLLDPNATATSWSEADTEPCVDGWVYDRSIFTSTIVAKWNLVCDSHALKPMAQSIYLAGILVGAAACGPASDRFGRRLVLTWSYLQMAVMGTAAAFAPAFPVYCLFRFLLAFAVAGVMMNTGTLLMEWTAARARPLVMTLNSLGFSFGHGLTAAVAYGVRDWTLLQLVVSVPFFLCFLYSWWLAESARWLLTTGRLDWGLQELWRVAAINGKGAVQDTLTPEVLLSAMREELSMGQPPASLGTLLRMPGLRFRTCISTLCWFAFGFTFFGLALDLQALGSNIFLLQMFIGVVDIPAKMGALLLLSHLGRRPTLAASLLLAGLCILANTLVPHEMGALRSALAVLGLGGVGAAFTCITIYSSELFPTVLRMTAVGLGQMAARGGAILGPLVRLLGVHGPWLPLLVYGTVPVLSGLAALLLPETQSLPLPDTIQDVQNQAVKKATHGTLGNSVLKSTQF
Method: The potency of the compounds of formula (I) as inhibitors of the URAT1 was determined as follow.
HEK293-URAT1 cell Lines were donated by Japan Fuji Biomedical Research Institute. Negative control cell of HEK293 (MOCK cells) which was transfected with pcDNA3.1 empty vector. HEK293-URAT1 cell lines and MOCK cell lines were cultured in complete growth medium consisting of DMEM supplemented with 10% FBS, penicillin and streptomycin.
Preparation of working solution: Each stock solutions was diluted to different concentrations (6, 20, 60, 200 and 600 μmol/L) with DMSO as 200× working solution, which was then diluted to 2× compound working solution with HBSS (Cl^− free) buffer. Radiolabeled substrate ^14C-Uric acid solution was diluted with HBSS (Cl^− free) buffer to obtain 2× working solution which was mixed with an equal volume of 2× compound working solution to obtain the mixture of radiolabeled substrate and compound working solution.
HER293-URAT1 and MOCK cells were seeded onto 24-well plates at the density of 1.5×10^6 cells per well. The cells were incubated at 37° C., 5% CO2 overnight. After cultured for approximately 2 to 3 days, cells were used for the experiments. The culture medium were removed from the wells, and cells were washed with HBSS (Cl^− free) and incubated in 37° C. HBSS (Cl^− free) for 10 min. HBSS was replaced with 500 μL of the mixture of radiolabeled substrate and compound working solution. The final concentration of ^14C-Uric acid in the assay was 5.0 μmol/L. Plates were incubated at 37° C., 5% CO2 for 2 min, and the reaction was stopped by the addition of pre-chilled HBSS (Cl^− free) by washing three times. 400 μL, NaOH (0.1 mmol/L) was added to lyse the cells and the cell lysate was collected to scintillation vials, and 3 ml scintillant (Aquasol-2, PerkinElmer) was added and after mixing completely, the radioactivity was counted by Tri-Carb 2910TR liquid scintillation counter. Each concentration of compounds, positive control and negative control were repeated in two wells (n=2). Inhibition % data were calculated using the formula:
Inhibition=[100×(U−U0)/(Uc−U0)]%, and analyzed using Prism5 software. • U0: Average of signals of MOCK cells; • Uc: Average of signals of radiolabeled substrate. The half inhibition concentration of the tested compounds to URAT1 were analyzed using Prism 5 software.

URAT1 [2] = molecular target: T1, URAT1; assay: URAT1 inhibitor activity, MDCK cells; type: cell-based; set-up: host or cells: MDCK; details: URAT1 inhibition
CYP2C9 = molecular target: T2, CYP2C9 (Homo sapiens, UniProt P11712); assay: CYP inhibition assay in human liver microsomes; type: in vitro ADME; details: human liver microsomes 0.200 mg/mL, 37° C. for 10 minutes
T2 construct: conducted using human liver microsomes; from tissue; host or cells: human liver microsomes
Method: The CYP inhibition assay was conducted using human liver microsomes at 0.200 mg/mL with a marker substrate for CYP2C9. The substrate concentrations employed were similar to published Michaelis-Menten constants (Km) for each of the respective reactions. The test compounds were added at 8 concentrations (0, 0.0500, 0.150, 0.500, 1.50, 5.00, 15.0, and 50.0 μM). A known inhibitor for the isozyme, at a single concentration (3.00 μM) in duplicates, was selected as the positive control. The reaction in the presence of the organic solvent instead of test compounds served as vehicle control. The final content of organic solvent in all the reactions was up to 0.5% DMSO and 0.5% methanol.
Reactions were initiated by adding NADPH followed by incubation at 37° C. for 10 minutes. And reactions were terminated by adding a 2-fold volume ice-cold acetonitrile with internal standards. Samples were processed and analyzed by liquid chromatography tandem mass spectrometry (LC-MS/MS).The results are given in the Table 4.

T2 sequence (P11712 whole entry): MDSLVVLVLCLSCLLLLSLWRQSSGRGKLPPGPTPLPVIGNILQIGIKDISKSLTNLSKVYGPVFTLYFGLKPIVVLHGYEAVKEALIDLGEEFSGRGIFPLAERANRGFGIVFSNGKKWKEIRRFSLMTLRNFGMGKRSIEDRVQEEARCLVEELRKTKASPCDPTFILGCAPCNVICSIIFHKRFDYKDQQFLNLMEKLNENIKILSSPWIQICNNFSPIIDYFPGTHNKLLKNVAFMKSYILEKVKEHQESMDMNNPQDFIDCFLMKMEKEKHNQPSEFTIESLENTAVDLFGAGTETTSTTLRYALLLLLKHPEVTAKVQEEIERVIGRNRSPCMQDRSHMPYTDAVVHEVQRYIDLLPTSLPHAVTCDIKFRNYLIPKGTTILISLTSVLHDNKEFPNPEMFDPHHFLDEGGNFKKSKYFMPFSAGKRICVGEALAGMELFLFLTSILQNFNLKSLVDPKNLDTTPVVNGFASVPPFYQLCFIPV

Row | SMILES | IC50 (URAT1 [1]) [nM] | IC50 (URAT1 [2]) [nM] | IC50 (CYP2C9) [µM]
1 | O=C(c1cc(Br)c(O)c(Br)c1)N1CCOc2cn[nH]c21 [Example 3, (3,5-dibromo-4-hydroxyphenyl)(5,6-dihydropyrazolo[4,3-b][1,4]oxazin-7(1H)-yl)methanone] | 130 | – | –
2 | Cn1ncc2c1N(C(=O)c1cc(Br)c(O)c(Br)c1)CCC2 [Example 11, (3,5-dibromo-4-hydroxyphenyl)(1-methyl-1,4,5,6-tetrahydro-7H-pyrazolo [3,4-b]pyridin-7-yl)methanone] | 100 | – | –
3 | Cn1ncc2c1N(C(=O)c1cc(Cl)c(O)c(Cl)c1)CCO2 [Example 14, (3,5-dichloro-4-hydroxyphenyl)(1-methyl-5,6-dihydropyrazolo[4,3-b][1,4]oxazin-7(1H)-yl)methanone] | – | 252 | –
4 | Cc1nn(C)c2c1O[C@@H](C)CN2C(=O)c1cc(Br)c(O)c(Br)c1 [Example 15, (S)-(3,5-dibromo-4-hydroxyphenyl) (1,3,5-trimethyl-5,6-dihydropyrazolo[4,3-b][1,4]oxazin-7(1H)-yl)methanone] | – | 126 | –
5 | Cn1cc2c(n1)N(C(=O)c1cc(Br)c(O)c(Br)c1)CCO2 [Example 19, (3,5-dibromo-4-hydroxyphenyl)(2-methyl-5,6-dihydropyrazolo[4,3-b][1,4]oxazin-7(2H)-yl)methanone] | 339 | – | –
6 | O=C(c1cc(Br)c(O)c(Br)c1)N1CCOc2[nH]ncc21 [Example 20, (3,5-dibromo-4-hydroxyphenyl)(5,6-dihydropyrazolo[3,4-b][1,4]oxazin-4(1H)-yl)methanone] | 235 | – | –
7 | Cn1ncc2c1OCCN2C(=O)c1cc(Br)c(O)c(Br)c1 [Example 21, (3,5-dibromo-4-hydroxyphenyl)(1-methyl-5,6-dihydropyrazolo[3,4-b][1,4]oxazin-4(1H)-yl)methanone] | 297 | – | –
8 | Cc1nn(C)c2c1SCCN2C(=O)c1cc(Br)c(O)c(Br)c1 [Example 23, (3,5-dibromo-4-hydroxyphenyl)(1,3-dimethyl-5,6-dihydropyrazolo[4,3-b][1,4]thiazin-7(1H)-yl)methanone] | – | 189 | –

Continued by falling IC50 (URAT1 [2]), values first:

Row | IC50 (URAT1 [1]) [nM] | IC50 (URAT1 [2]) [nM] | IC50 (CYP2C9) [µM] | SMILES
9 | 40 | 93 | 18.9 | C[C@H]1CN(C(=O)c2cc(Br)c(O)c(Br)c2)c2c(cnn2C)O1 [Example 5, (S)-(3,5-dibromo-4-hydroxyphenyl) (1,5-dimethyl-5,6-dihydropyrazolo[4,3-b][1,4]oxazin-7(1H)-yl)methanone]
10 | < 30 | 85 | 16.2 | Cc1nn(C)c2c1OCCN2C(=O)c1cc(Br)c(O)c(Br)c1 [Example 10, (3,5-dibromo-4-hydroxyphenyl)(1,3-dimethyl-5,6-dihydropyrazolo[4,3-b] [1,4]oxazin-7(1H)-yl)methanone]
11 | – | 84 | – | Cc1nn(C)c2c1OC(C)(C)CN2C(=O)c1cc(Br)c(O)c(Br)c1 [Example 13, (3,5-dibromo-4-hydroxyphenyl)(1,3,5,5-tetramethyl-5,6-dihydropyrazolo[4,3-b][1,4]oxazin-7(1H)-yl)methanone]
12 | – | 80 | – | Cn1ncc2c1N(C(=O)c1cc(Br)c(O)c(Br)c1)CC(C)(C)O2 [Example 12, (3,5-dibromo-4-hydroxyphenyl)(1,5,5-trimethyl-5,6-dihydropyrazolo[4,3-b] [1,4]oxazin-7(1H)-yl)methanone]
13 | – | 60 | 10.4 | Cc1nn(C)c2c1OC1(CC1)CN2C(=O)c1cc(Br)c(O)c(Br)c1 [Example 17, (3,5-dibromo-4-hydroxyphenyl)(1′,3′-dimethyl-1′H-spiro[cyclopropane-1,5′-pyrazolo[4,3-b][1,4]oxazin]-7′(6′H)-yl)methanone]
14 | – | 48 | 4.25 | Cn1ncc2c1N(C(=O)c1cc(Br)c(O)c(Br)c1)CC1(CC1)O2 [Example 16, (3,5-dibromo-4-hydroxyphenyl)(1′-methyl-1′H-spiro[cyclopropane-1,5′-pyrazolo[4,3-b][1,4]oxazin]-7′(6′H)-yl) methanone]
15 | – | 37 | 16 | Cc1nn(C)c2c1O[C@H](C)CN2C(=O)c1cc(Br)c(O)c(Br)c1 [Example 18]
16 | 69 | 29 | > 50 | Cn1ncc2c1N(C(=O)c1cc(Br)c(O)c(Br)c1)CCO2 [Example 2, (3,5-Dibromo-4-hydroxyphenyl)(1-methyl-5,6-dihydropyrazolo[4,3-b][1,4]oxazin-7(1H)-yl)methanone]
17 | 62 | 25 | 15.5 | C[C@@H]1CN(C(=O)c2cc(Br)c(O)c(Br)c2)c2c(cnn2C)O1 [Example 1, (R)-(3,5-dibromo-4-hydroxyphenyl)(1,5-dimethyl-5,6-dihydropyrazolo[4,3-b][1,4]oxazin-7(1H)-yl)methanone]
